# From paper PMC9775177, “NLRP3-Inflammasome Inhibition with IZD334 Does Not Reduce Cardiac Damage in a Pig Model of Myocardial Infarction” (Biomedicines, 2022)
# Several values for one entry are separate records, joined by “and”; a condition that tells them apart may be missing. Equal entries are not always repeated. Where two headings read alike, the source gives them in different places.
# Columns and labels:
# [1] = tested on: pig model of myocardial infarction; experiment: In vivo MI study: infarct size by Evans Blue TTC double staining; settings: 10 mg/kg IV loading dose, 7 days after MI
# Experimental: All animal experiments and analyses were performed in a blinded, randomized fashion. Thirty female pigs were subjected to closed-chest LAD coronary artery balloon occlusion for 75 min followed by 7 days of reperfusion. […] The control (PBS) group received an oral placebo. Oral treatment was continued for six days. All pigs underwent transthoracic and three-dimensional transesophageal echocardiography before induction of ischemia and after 7 days. Furthermore, on day 7, cardiac magnetic resonance (CMR) imaging was performed. Subsequently, the LAD was occluded at the exact same site as during infarct induction. After verification of complete vessel occlusion, Evans Blue (E2129, Sigma-Aldrich, St. Louis, MO, USA) solution was infused in the left and right coronary arteries in order to assess the area at risk (AAR). Animals were sacrificed by exsanguination under anesthesia. The heart was excised, cut into 5 slices, and incubated in 1% 2,3,5-triphenyltetrazolium chloride (TTC) (1.08380, Sigma-Aldrich, St. Louis, MO, USA) in 37 degrees 0.9% NaCl for 15 min to discriminate between infarct tissue and viable myocardium. Each slice was photographed at the basal and apical side with a ruler and analyzed with ImageJ software (NIH, Bethesda, MD, USA).
# NLRP3-inflammasome [2] = experiment: In vitro stimulation of porcine whole blood with LPS and ATP, IL-1β release; assay type: cell-based
# Experimental: (§1) To confirm the ability of IZD334 to effectively attenuate porcine NLRP3-inflammasome signaling, we used a previously standardized study protocol. In short, porcine peripheral blood mononuclear cells (PBMCs) were isolated from healthy porcine animals. Whole blood samples and isolated PBMCs were stimulated with lipopolysaccharide (LPS) (1 µg/mL, L4516, Sigma-Aldrich, St. Louis, MO, USA) and increasing concentrations of IZD334. After three h of incubation, 5 mM adenosine triphosphate (ATP) (A1852, Sigma-Aldrich, St. Louis, MO, USA) was added for 1 h to induce inflammasome activation. IL-1β release was measured in the supernatant with a Luminex Immunoasssay specific for porcine IL-1β (EPX01A-66048-901, ProcartaTM Simplex, eBioscience, ThermoFisher, San Diego, CA, USA).
# (§2) In short, porcine peripheral blood mononuclear cells (PBMCs) were isolated from healthy porcine animals using Ficoll density-gradient centrifugation. Whole blood samples and isolated PBMCs were stimulated with lipopolysaccharide (LPS) (1 µg/mL, L4516, Sigma-Aldrich, St. Louis, MO, USA) and increasing concentrations of IZD334 (top concentration of 10 µM with an 8-point half-log dilution). After three h of incubation, 5 mM adenosine triphosphate (ATP) (A1852, Sigma-Aldrich, St. Louis, MO, USA) was added for 1 h to induce inflammasome activation. IL-1β release was measured in the supernatant with a Luminex Immunoasssay specific for porcine IL-1β (ProcartaTM Simplex, eBioscience, San Diego, CA, USA).
# [3] = tested on: pig model of myocardial infarction; settings: for 0 Min HR (bpm) / 30 Min MAP (mmHg) / 60 Min HR (bpm) / 90 Min MAP (mmHg) / 120 Min HR (bpm) / 150 Min MAP (mmHg): time after induction of MI
# Experimental: All animal experiments and analyses were performed in a blinded, randomized fashion. […] Fifteen minutes before reperfusion, pigs were randomly assigned to IV treatment with either placebo (40 mL PBS) or a 10 mg/kg IZD334 loading dose (dissolved in 40 mL PBS) infusion for 30 min. After the first dose of IZD334, pigs were randomly assigned to three oral treatment regimens (1 mg/kg, 3 mg/kg, and 10 mg/kg). Dosing was based on in vivo pharmacokinetic findings in healthy pigs. The control (PBS) group received an oral placebo. Oral treatment was continued for six days. All pigs underwent transthoracic and three-dimensional transesophageal echocardiography before induction of ischemia and after 7 days. Furthermore, on day 7, cardiac magnetic resonance (CMR) imaging was performed. Subsequently, the LAD was occluded at the exact same site as during infarct induction. After verification of complete vessel occlusion, Evans Blue (E2129, Sigma-Aldrich, St. Louis, MO, USA) solution was infused in the left and right coronary arteries in order to assess the area at risk (AAR). Animals were sacrificed by exsanguination under anesthesia. […] Each slice was photographed at the basal and apical side with a ruler and analyzed with ImageJ software (NIH, Bethesda, MD, USA).
# NLRP3-inflammasome [4] = experiment: Ex vivo stimulation assay of whole blood after in vivo IZD334 infusion, IL-1β release; design: species or system pigs; settings: whole blood taken 60 min after in vivo infusion of 10 mg/kg, LPS + ATP; before infusion 11856 ± 1969 ng/mL, p < 0.001
# Experimental: To more specifically determine in vivo target engagement, whole blood was obtained at baseline (prior to IZD334 infusion) and 60 min after in vivo IZD334 infusion (10 mg/kg). These samples were then stimulated with LPS and ATP in a similar fashion as in the previously described experiments. IL-1β release was measured in the supernatant with a Luminex Immunoassay specific for porcine IL-1β (ProcartaTM Simplex, eBioscience, San Diego, CA, USA).
# NLRP3-inflammasome [5] = experiment: In vitro stimulation of porcine PBMCs with LPS and ATP, IL-1β release; assay type: cell-based; settings: porcine PBMCs and whole blood, LPS 1 µg/mL 3 h, then 5 mM ATP 1 h
# Experimental: as §1
# as §2, with “After three h of incubation, 5 mM adenosine triphosphate (ATP) (A1852, Sigma-Aldrich, St. Louis, MO, USA) was added for 1 h to induce inflammasome activation.” left out
# [6] = tested on: pig model of myocardial infarction; experiment: In vivo MI study: cardiac volumes and function by cardiac magnetic resonance; design: species or system pigs; settings: CMR, 10 mg/kg IV loading dose, 7 days after MI
# Experimental: Oral treatment was continued for six days. […] Animals were sacrificed by exsanguination under anesthesia.
# Animals were placed on the CMR table in a supine position, under continuous sedation as described above. Steady-state free precession (SSFP) short axis images from the left ventricle (LV) base through the LV apex were used for the quantification of LV volumes, ejection fraction (EF), and mass. Imaging was performed using a respiratory-corrected, cardiac-gated SSFP in sequence. CMR images were anonymized and analyzed offline using MedisSuite (Medis Medical Imaging Systems, version 3.1, Leiden, The Netherlands).
# [7] = Pharmacokinetics study in healthy pigs; assay type: in vivo
# Experimental: Healthy female pigs (n = 3) were given intravenous (IV) treatment with IZD334 (3 mg/kg) via a 30 min infusion, and blood was collected at multiple timepoints and analyzed to determine pharmacokinetics. After a wash-out period of 3 days, the pigs received an oral dose (10 mg/kg), and plasma was again collected and analyzed.
# In vivo IZD334 concentrations were measured in plasma samples using mass-spectrometry. IZD334 content was quantified using positive ionization mode and multiple reaction monitoring on a Sciex API 5500 Mass spectrometer (MRM transition: 392.0 > 176.1).
# At multiple time points (0.033, 0.083, 0.17, 0.25, 0.50, 1.0, 2.0, 3.0, 4.0, 6.0, 8.0, 12.0, 24.0 h) after dosing, plasma was collected by whole-blood centrifugation at 1850× g, and samples were immediately stored to determine pharmacokinetics. After a wash-out period of 3 days, the pigs received an oral dose (10 mg/kg), and plasma was collected again at multiple time points (0.25, 0.50, 0.75, 1.0, 2.0, 3.0, 4.0, 6.0, 8.0, 12.0, 24.0 h) for pharmacokinetic purposes. Samples were sent to Sygnature Discovery (Nottingham, United Kingdom) to determine circulating levels of IZD334.
# The volume of distribution at steady state (Vdss) is defined as the total concentration of IZD334 in the entire body divided by IZD334 plasma concentration. Drug clearance (Cl) was calculated by dividing the total administered dose with the area under the curve. Maximal concentration (Cmax) was obtained by calculating the mean of the highest concentrations of the separate pigs. Bioavailability (F%) was calculated using the following equation: (100 ∗ ((area under the curve oral dose × IV dose)/(area under the curve IV dose × oral dose))).
# [8] = then 1 mg/kg oral once daily, n = 6
# [9] = then 3 mg/kg oral once daily, n = 6
# [10] = then 3 mg/kg oral once daily, n = 7
# [11] = then 10 mg/kg oral once daily, n = 7
# [12] = healthy pigs n = 3, PO 10 mg/kg
structure (smiles),measurement,setting,value
CCN1CCC(S(=O)(=O)[N-]C(=O)Nc2c3c(cc4c2CCC4)CCC3)CC1.[K+] [IZD334],AAR/LV ± SD,[1]; [8],23.5 ± 3.2%
same,IS/AAR ± SD,[1]; [8],75.5 ± 7.3% and 75.5%
same,IS/LV ± SD,[1]; [8],17.7 ± 6.3%
same,AAR/LV ± SD,[1]; [9],26.0 ± 1.9%
same,IS/AAR ± SD,[1]; [9],80.3 ± 3.9%
same,IS/LV ± SD,[1]; [10],20.5 ± 2.2%
same,AAR/LV ± SD,[1]; [11],26.4 ± 6.6%
same,IS/AAR ± SD,[1]; [11],78.2 ± 8.0% and 78.2%
same,IS/LV ± SD,[1]; [11],19.3 ± 2.9%
same,performance in whole blood assay compared with MCC950,NLRP3-inflammasome [2]; porcine whole blood assay,performs as well as MCC950
same,IC50,"NLRP3-inflammasome [2]; porcine whole blood, LPS 1 µg/mL 3 h, then 5 mM ATP 1 h, read-out: half maximal inhibitory concentration (IC50), IL-1β release",350 nM
same,"LogIC50, whole blood stimulation","NLRP3-inflammasome [2]; porcine whole blood, LPS + ATP, basis of log not printed (fits nM)",2.545
same,0 Min HR (bpm),"[3]; 1 mg/kg group, n = 6",70 ± 12 bpm
same,30 Min MAP (mmHg),"[3]; 1 mg/kg group, n = 6",85 ± 7 mmHg
same,60 Min HR (bpm),"[3]; 1 mg/kg group, n = 6",68 ± 9 bpm
same,90 Min MAP (mmHg),"[3]; 1 mg/kg group, n = 6",71 ± 12 mmHg
same,120 Min HR (bpm),"[3]; 1 mg/kg group, n = 6",67 ± 8 bpm
same,150 Min MAP (mmHg),"[3]; 1 mg/kg group, n = 6",79 ± 11 mmHg
same,0 Min HR (bpm),"[3]; 3 mg/kg group, n = 7",74 ± 4 bpm
same,30 Min MAP (mmHg),"[3]; 3 mg/kg group, n = 7",74 ± 13 mmHg
same,60 Min HR (bpm),"[3]; 3 mg/kg group, n = 7",72 ± 11 bpm
same,90 Min MAP (mmHg),"[3]; 3 mg/kg group, n = 7",58 ± 20 mmHg
same,120 Min HR (bpm),"[3]; 3 mg/kg group, n = 7",61 ± 7 bpm
same,150 Min MAP (mmHg),"[3]; 3 mg/kg group, n = 7",70 ± 23 mmHg
same,0 Min HR (bpm),"[3]; 10 mg/kg group, n = 7",73 ± 11 bpm
same,30 Min MAP (mmHg),"[3]; 10 mg/kg group, n = 7",72 ± 12 mmHg
same,60 Min HR (bpm),"[3]; 10 mg/kg group, n = 7",70 ± 11 bpm
same,90 Min MAP (mmHg),"[3]; 10 mg/kg group, n = 7",56 ± 19 mmHg
same,120 Min HR (bpm),"[3]; 10 mg/kg group, n = 7",62 ± 7 bpm
same,150 Min MAP (mmHg),"[3]; 10 mg/kg group, n = 7",62 ± 15 mmHg
same,Heart rate and mean arterial blood pressure versus placebo,"[3]; first 2.5 h after induction of MI and subsequent compound administration, all dose groups",similar
same,pigs that died one day after infarct induction,"[3]; low-dose (1 mg/kg) group, presumably due to late VF, also one animal in the placebo group",one animal
same,IL-1β release after ex vivo stimulation,NLRP3-inflammasome [4],3968 ng/mL
same,IL-1β release,NLRP3-inflammasome [5],dose-dependently reduced IL-1β release
same,EDV,[6]; [8],150 ± 26 mL and 149.6 ± 26.2 mL
same,EF%,[6]; [8],49.9 ± 6.1%
same,ESV,[6]; [8],72 ± 19 mL and 71.5 ± 18.7 mL
same,EDV,[6]; [10],151 ± 8 mL and 151.4 ± 7.6 mL
same,EF%,[6]; [10],42.7 ± 3.8%
same,ESV,[6]; [10],87 ± 8 mL and 86.8 ± 8.2 mL
same,EDV,[6]; [11],144 ± 22 mL and 144.0 ± 22.0 mL
same,EF%,[6]; [11],44.9 ± 6.4%
same,ESV,[6]; [11],80 ± 19 mL and 80.0 ± 18.9 mL
same,AUC0-inf (ng.h/mL),"[7]; healthy pigs n = 3, IV 3 mg/kg","27,786 ng.h/mL"
same,Cl,"[7]; healthy pigs n = 3, IV 3 mg/kg",1.8 mL/min/kg
same,MRT0-inf,"[7]; healthy pigs n = 3, IV 3 mg/kg",5.3 h
same,Vdss,"[7]; healthy pigs n = 3, IV 3 mg/kg",0.58 L/kg
same,T1/2,"[7]; healthy pigs n = 3, IV 3 mg/kg, 30 min infusion",3.9 h
same,AUC0-inf (ng.h/mL),[7]; [12],"86,337 ng.h/mL"
same,Cmax (ng/mL),[7]; [12],"12,116 ng/mL"
same,F% (bioavailability),"[7]; healthy pigs n = 3, PO 10 mg/kg versus IV 3 mg/kg",93%
same,time that plasma concentrations sufficient for effective inhibition were maintained,"[7]; healthy pigs, IV 3 mg/kg, based on extrapolation of in vitro results",24 h
same,circulating levels 24 h after compound administration,"[7]; healthy pigs, PO 10 mg/kg",adequate circulating levels
